Experimental data published in PubChem BioAssay AID2060882 (Molecular Pharmacology Branch, DTP, NCI, 2025).

Tested on: 898857-211-R-J1-PDC complex spheroids, growth % test/control
Assay: Anticancer human tumor 898857-211-R-J1-PDC patient-derived melanoma cell line growth inhibition [RAS]
Conditions: for IC50: curve of first compound; for viability, T/C: stronger effect = lower value
How it was run: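 Tumour cells grown as complex spheroids with HUVEC endothelial cells and mesenchymal stem cells, treated with RAS pathway inhibitor combinations. Each agent spans half-log steps from near clinical Cmax, or 10 microM where Cmax is unknown.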

[1] = second compound 0.0316 µM, first compound 0.00316 µM
[2] = second compound 0.0316 µM, first compound 0.01 µM
[3] = second compound 0.0316 µM, first compound 0.0316 µM
[4] = second compound 0.0316 µM, first compound 0.1 µM
[5] = second compound 0.0316 µM, first compound 0.316 µM
[6] = second compound 0.0316 µM, first compound 1 µM
[7] = second compound 0.1 µM, first compound 0.00316 µM
[8] = second compound 0.1 µM, first compound 0.01 µM
[9] = second compound 0.1 µM, first compound 0.0316 µM
[10] = second compound 0.1 µM, first compound 0.1 µM
[11] = second compound 0.1 µM, first compound 0.316 µM
[12] = second compound 0.1 µM, first compound 1 µM
[13] = second compound 0.316 µM, first compound 0.00316 µM
[14] = second compound 0.316 µM, first compound 0.01 µM
[15] = second compound 0.316 µM, first compound 0.0316 µM
[16] = second compound 0.316 µM, first compound 0.1 µM
[17] = second compound 0.316 µM, first compound 0.316 µM
[18] = second compound 0.316 µM, first compound 1 µM
[19] = second compound 1 µM, first compound 0.00316 µM
[20] = second compound 1 µM, first compound 0.01 µM
[21] = second compound 1 µM, first compound 0.0316 µM
[22] = second compound 1 µM, first compound 0.1 µM
[23] = second compound 1 µM, first compound 0.316 µM
[24] = second compound 1 µM, first compound 1 µM
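Further: spheroids exposed to compound for seven days before readout.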
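Wherever viability, T/C is given: 100% = DMSO vehicle control wells.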

`C=CC(=O)Nc1cc(Nc2nccc(-c3cn(C)c4ccccc34)n2)c(OC)cc1N(C)CCN(C)C` + C=CC(=O)N1CCN(c2nc(OCC3CCCN3C)nc3c(F)c(-c4nc(N)cc(C)c4C(F)(F)F)c(Cl)cc23)C(C)C1 was tested, and the IC50 (second compound 0.00316 µM) was 940 nM, the IC50 (second compound 0.01 µM) was > 1000 nM and the IC50 (second compound 0.0316 µM) was > 1000 nM. The IC50 (second compound 0.1 µM) was 962 nM, the IC50 (second compound 0.316 µM) was > 1000 nM and the IC50 (second compound 1 µM) was 870 nM. The viability, T/C (second compound 0.00316 µM, first compound 0.00316 µM) was 98.9%, the viability, T/C (second compound 0.00316 µM, first compound 0.01 µM) was 98.9% and the viability, T/C (second compound 0.00316 µM, first compound 0.0316 µM) was 116%. The viability, T/C (second compound 0.00316 µM, first compound 0.1 µM) was 101%, the viability, T/C (second compound 0.00316 µM, first compound 0.316 µM) was 92.6% and the viability, T/C (second compound 0.00316 µM, first compound 1 µM) was 47.5%. It also gave a viability, T/C (second compound 0.01 µM, first compound 0.00316 µM) of 102%, a viability, T/C (second compound 0.01 µM, first compound 0.01 µM) of 105% and a viability, T/C (second compound 0.01 µM, first compound 0.0316 µM) of 93%. The viability, T/C (second compound 0.01 µM, first compound 0.1 µM) was 100%, the viability, T/C (second compound 0.01 µM, first compound 0.316 µM) was 96.5% and the viability, T/C (second compound 0.01 µM, first compound 1 µM) was 54.4%. For the same molecule, the viability, T/C [1] was 104%, the viability, T/C [2] was 103% and the viability, T/C [3] was 104%. It also gave a viability, T/C [4] of 107%, a viability, T/C [5] of 93.6% and a viability, T/C [6] of 58.4%. For the same molecule, the viability, T/C [7] was 105%, the viability, T/C [8] was 105% and the viability, T/C [9] was 117%. It also gave a viability, T/C [10] of 106%, a viability, T/C [11] of 98% and a viability, T/C [12] of 48.2%. It also gave a viability, T/C [13] of 114%, a viability, T/C [14] of 112% and a viability, T/C [15] of 116%. It also gave a viability, T/C [16] of 108%, a viability, T/C [17] of 93.8% and a viability, T/C [18] of 53.7%. The viability, T/C [19] was 118%, the viability, T/C [20] was 120% and the viability, T/C [21] was 124%. For the same molecule, the viability, T/C [22] was 114%, the viability, T/C [23] was 97.7% and the viability, T/C [24] was 43.4%.
`Nc1ccn(C2OC(CO)C(O)C2(F)F)c(=O)n1` (centres undefined) + C#Cc1c(F)ccc2cc(O)cc(-c3ncc4c(N5CC6CCC(C5)N6)nc(OCC56CCCN5CC(F)C6)nc4c3F)c12 showed an IC50 (second compound 0.0316 µM) of 7.32 nM, an IC50 (second compound 0.1 µM) of 7.52 nM and an IC50 (second compound 0.316 µM) of 7.89 nM. For the same molecule, the IC50 (second compound 1 µM) was 7.11 nM, the IC50 (second compound 3.16 µM) was 7.22 nM and the IC50 (second compound 10 µM) was < 3.16 nM. It also gave a viability, T/C [1] of 105%, a viability, T/C [2] of 29.7% and a viability, T/C [3] of 6.72%. The viability, T/C [4] was 5%, the viability, T/C [5] was 5.45% and the viability, T/C [6] was 5.38%. For the same molecule, the viability, T/C [7] was 92.7%, the viability, T/C [8] was 36% and the viability, T/C [9] was 7.32%. The viability, T/C [10] was 5.55%, the viability, T/C [11] was 5.77% and the viability, T/C [12] was 5.83%. For the same molecule, the viability, T/C [13] was 97.4%, the viability, T/C [14] was 37.7% and the viability, T/C [15] was 7.43%. For the same molecule, the viability, T/C [16] was 4.86%, the viability, T/C [17] was 5.48% and the viability, T/C [18] was 5.75%. It also gave a viability, T/C [19] of 91.7%, a viability, T/C [20] of 32.4% and a viability, T/C [21] of 8.35%. It also gave a viability, T/C [22] of 5.57%, a viability, T/C [23] of 4.9% and a viability, T/C [24] of 5.48%. For the same molecule, the viability, T/C (second compound 3.16 µM, first compound 0.00316 µM) was 99%, the viability, T/C (second compound 3.16 µM, first compound 0.01 µM) was 30.7% and the viability, T/C (second compound 3.16 µM, first compound 0.0316 µM) was 7.65%. For the same molecule, the viability, T/C (second compound 3.16 µM, first compound 0.1 µM) was 6.3%, the viability, T/C (second compound 3.16 µM, first compound 0.316 µM) was 5.81% and the viability, T/C (second compound 3.16 µM, first compound 1 µM) was 5.63%. It also gave a viability, T/C (second compound 10 µM, first compound 0.00316 µM) of 46.4%, a viability, T/C (second compound 10 µM, first compound 0.01 µM) of 25.8% and a viability, T/C (second compound 10 µM, first compound 0.0316 µM) of 7.48%. For the same molecule, the viability, T/C (second compound 10 µM, first compound 0.1 µM) was 6.16%, the viability, T/C (second compound 10 µM, first compound 0.316 µM) was 6.42% and the viability, T/C (second compound 10 µM, first compound 1 µM) was 5.33%.
